Test results reported in US20250296959A1, “B7-H3 TARGETING PEPTIDES AND CONSTRUCTS THEREOF” (Mariana Oncology Inc., priority 2024, published 2025).
Where two headings read alike, the source gives them in different places. Starred links: 1 amine or outer side, 2 acyl side, 3 side chain; linkers in the order of their positions; H or OH if unused. Positions of bridges follow the written chain, without caps; N, C: chain ends. Non-standard residues stand in square brackets, D forms with d. Residues, ends and D or L forms follow the SMILES beside them. *: point of attachment. X2 = O=C(O)CN1CCN(CC(=O)O)CCN(CC(=O)NCCOCCOCCOCCOCC(=O)*)CCN(CC(=O)O)CC1; Ala(1-CH2CO2H-4-piperidyl) = N[C@@H](CC1CCN(CC(=O)O)CC1)C(=O)O; Ala(piperidin-4-yl) = O=C([C@H](CC1CCN([*:3])CC1)N[*:1])[*:2]; DOTA = O=C(O)CN1CCN(CC(=O)O)CCN(CC(=O)*)CCN(CC(=O)O)CC1; Phe(4-COOH) = N[C@@H](Cc1ccc(C(=O)O)cc1)C(=O)O; Trp(5-F) = N[C@@H](Cc1c[nH]c2ccc(F)cc12)C(=O)O; PEG8 = NCCOCCOCCOCCOCCOCCOCCOCCOCCC(=O)O; Ala(4-THP) = N[C@@H](CC1CCOCC1)C(=O)O; Val(3-OH) = CC(C)(O)[C@H](N)C(=O)O; Tle = CC(C)(C)[C@H](N)C(=O)O; hLeu = CC(C)CC[C@H](N)C(=O)O

Columns and labels:
Calu-6 cell line [1] = assay: Cell associated (bound) fraction of [177Lu]Lu-labeled peptide in Calu-6 cells; type: cell-based, Human; conditions: 1 hour, 37° C.
In short: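 Peptide conjugate was labelled with [177Lu]LuCl3 in ammonium acetate pH ~5 at 80 °C for 17-20 min, with purity checked by RP-HPLC. Calu-6 suspensions (5 million cells/mL in 1% PBSA) were incubated with 0.8 μCi for 1 h at 37 °C. Cell pellets were gamma-counted after two cold PBS/BSA washes, giving the bound fraction against the unbound supernatant plus washes.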

Calu-6 cell line [2] = assay: Net internalization of [177Lu]Lu-labeled peptide in Calu-6 cells; type: cell-based, Human; conditions: 1 hour, 37° C., glycine pH 2.5 acid wash
In short: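 Peptide conjugate labeled with [177Lu]LuCl3 at pH ~5, 80 °C, 17–20 min, and purity checked by RP-HPLC. B7-H3-expressing human Calu-6 lung cancer cells at 5 million cells/mL in 1% PBSA. Internalized fraction: counts left after two 3 min 50 mM glycine pH 2.5 washes and NaOH lysis, gamma counted against bound fraction.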

human 4lg B7-H3 = biological target: T1, human 4lg B7-H3 (Homo sapiens, UniProt Q5ZPR3); assay: Affinity determination by surface plasmon resonance (SPR) to 4Ig B7-H3; conditions: 4Ig B7-H3
T1 sequence (Q5ZPR3 29-534): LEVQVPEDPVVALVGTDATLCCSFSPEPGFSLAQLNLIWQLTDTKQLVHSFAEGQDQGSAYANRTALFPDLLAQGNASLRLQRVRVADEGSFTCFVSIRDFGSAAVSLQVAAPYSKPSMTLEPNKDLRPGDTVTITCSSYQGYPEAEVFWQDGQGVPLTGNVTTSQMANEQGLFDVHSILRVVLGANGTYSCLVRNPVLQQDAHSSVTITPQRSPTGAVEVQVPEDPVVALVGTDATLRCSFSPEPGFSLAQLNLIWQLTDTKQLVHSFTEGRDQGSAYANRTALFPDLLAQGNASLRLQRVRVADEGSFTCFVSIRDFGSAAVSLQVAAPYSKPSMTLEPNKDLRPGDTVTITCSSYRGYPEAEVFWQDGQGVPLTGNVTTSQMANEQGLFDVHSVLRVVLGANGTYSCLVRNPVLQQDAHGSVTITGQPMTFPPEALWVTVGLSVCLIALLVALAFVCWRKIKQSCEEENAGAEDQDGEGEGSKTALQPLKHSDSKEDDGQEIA

[3] = SPR KD—25° C., 25° C. flow cell temperature
[4] = read-out: SPR KD—37° C., 37° C. flow cell temperature

| SMILES | % cell associated fraction (Calu-6 cell line [1]) | % net internalization (Calu-6 cell line [2]) | Kd (human 4lg B7-H3; [3]) [nM] | Kd (human 4lg B7-H3; read-out: SPR KD—25° C., 25° C. flow cell temperature) [nM] | Kd (human 4lg B7-H3; [4]) [nM] | Kd (human 4lg B7-H3; SPR KD—37° C., 37° C. flow cell temperature) [nM] |
| --- | --- | --- | --- | --- | --- | --- |
| CC(C)CC[C@H](NC(=O)CCOCCOCCOCCOCCOCCOCCOCCOCCNC(=O)CN1CCN(CC(=O)O)CCN(CC(=O)O)CCN(CC(=O)O)CC1)C(=O)N[C@@H](Cc1ccc(O)cc1)C(=O)N[C@H]1CSSC[C@@H](C(=O)N[C@@H](Cc2c[nH]c3ccc(F)cc23)C(=O)N[C@@H](Cc2ccccc2)C(=O)N2CCC[C@H]2C(N)=O)NC(=O)[C@H](Cc2ccc(O)cc2)NC(=O)[C@H](C(C)C)NC(=O)[C@H](CC(=O)O)NC(=O)[C@H](Cc2ccc(C(=O)O)cc2)NC(=O)[C@H](CCCCN)NC(=O)CNC(=O)[C@H](C(C)C)NC1=O [compound 294, DOTA-PEG8-hLeu-Y-C-V-G-K-4COOHPhe-D-V-Y-C-5FW-F-Pro-CONH2] ({DOTA-PEG8}-[hLeu]YCVGK[Phe(4-COOH)]DVYC[Trp(5-F)]FP-NH2; disulfide 3-11) | A (%≤25) | A (%≤25) | 1 to 10 |  |  |  |
| CC(=O)N[C@@H](CCC(C)C)C(=O)N[C@@H](Cc1ccc(O)cc1)C(=O)N[C@H]1CSSC[C@@H](C(=O)N[C@@H](Cc2c[nH]c3ccc(F)cc23)C(=O)N[C@@H](Cc2ccccc2)C(=O)N[C@H](C(=O)N[C@H](CCCCNC(=O)CN2CCN(CC(=O)O)CCN(CC(=O)O)CCN(CC(=O)O)CC2)C(=O)O)C(C)(C)O)NC(=O)[C@H](Cc2ccc(O)cc2)NC(=O)[C@H](C(C)C)NC(=O)[C@H](CC(=O)O)NC(=O)[C@H](CC2CCOCC2)NC(=O)[C@H](CCCCN)NC(=O)CNC(=O)[C@H](C(C)(C)C)NC1=O [compound 303, Ac-hLeu-Y-C-Tbg-G-K-ThpA-D-V-Y-C-5FW-F-hydroxyVal-dLys(DOTA)-COOH] (Ac-[hLeu]YC[Tle]GK[Ala(4-THP)]DVYC[Trp(5-F)]F[Val(3-OH)][dK](DOTA)-OH; disulfide 3-11) | C (%>50) | B (25<%≤50) |  | < 1 | < 1 |  |
| CC[C@H](C)[C@@H]1NC(=O)[C@@H](NC(=O)[C@H](Cc2ccc(O)cc2)NC(=O)[C@H](CCC(C)C)NC(C)=O)CSSC[C@@H](C(=O)N[C@@H](Cc2c[nH]c3ccc(F)cc23)C(=O)N[C@@H](Cc2ccccc2)C(=O)N[C@H](C(=O)N[C@H](CCCCNC(=O)COCCOCCOCCOCCNC(=O)CN2CCN(CC(=O)O)CCN(CC(=O)O)CCN(CC(=O)O)CC2)C(=O)O)C(C)(C)O)NC(=O)[C@H](Cc2ccc(O)cc2)NC(=O)[C@H](C(C)C)NC(=O)[C@H](CC(=O)O)NC(=O)[C@H](CC2CCOCC2)NC(=O)[C@H](CCCCN)NC(=O)CNC1=O [compound 308, Ac-hLeu-Y-C-Ile-G-K-ThpA-D-V-Y-C-5FW-F-hydroxyVal-dLys(PEG4-DOTA)-COOH] (Ac-[hLeu]YCIGK[Ala(4-THP)]DVYC[Trp(5-F)]F[Val(3-OH)][dK](X2)-OH; disulfide 3-11) | C (%>50) | B (25<%≤50) | < 1 |  |  |  |
| CC(=O)N[C@@H](CCC(C)C)C(=O)N[C@@H](Cc1ccc(O)cc1)C(=O)N[C@H]1CSSC[C@@H](C(=O)N[C@@H](Cc2c[nH]c3ccc(F)cc23)C(=O)N[C@@H](Cc2ccccc2)C(=O)N[C@H](C(=O)N[C@H](CCCCNC(=O)COCCOCCOCCOCCNC(=O)CN2CCN(CC(=O)O)CCN(CC(=O)O)CCN(CC(=O)O)CC2)C(=O)O)C(C)(C)O)NC(=O)[C@H](Cc2ccc(O)cc2)NC(=O)[C@H](C(C)C)NC(=O)[C@H](CC(=O)O)NC(=O)[C@H](CC2CCOCC2)NC(=O)[C@H](CCCCN)NC(=O)CNC(=O)[C@H](C(C)(C)C)NC1=O [compound 310, Ac-hLeu-Y-C-Tbg-G-K-ThpA-D-V-Y-C-5FW-F-hydroxyVal-dLys(PEG4-DOTA)-COOH] (Ac-[hLeu]YC[Tle]GK[Ala(4-THP)]DVYC[Trp(5-F)]F[Val(3-OH)][dK](X2)-OH; disulfide 3-11) | C (%>50) | B (25<%≤50) | < 1 |  |  | < 1 |
| CC[C@H](C)[C@@H]1NC(=O)[C@@H](NC(=O)[C@H](Cc2ccc(O)cc2)NC(=O)[C@H](CCC(C)C)NC(C)=O)CSSC[C@@H](C(=O)N[C@@H](Cc2c[nH]c3ccc(F)cc23)C(=O)N[C@@H](Cc2ccccc2)C(=O)N[C@H](C(=O)N[C@H](CCCCNC(=O)CN2CCN(CC(=O)O)CCN(CC(=O)O)CCN(CC(=O)O)CC2)C(=O)O)C(C)(C)O)NC(=O)[C@H](Cc2ccc(O)cc2)NC(=O)[C@H](C(C)C)NC(=O)[C@H](CC(=O)O)NC(=O)[C@H](CC2CCOCC2)NC(=O)[C@H](CC2CCN(CC(=O)O)CC2)NC(=O)CNC1=O [compound 318, Ac-hLeu-Y-C-Ile-G-[Pip(CH2CO2H)Ala]-ThpA-D-V-Y-C-5FW-F-hydroxyVal-dLys(DOTA)-COOH] (Ac-[hLeu]YCIG[Ala(1-CH2CO2H-4-piperidyl)][Ala(4-THP)]DVYC[Trp(5-F)]F[Val(3-OH)][dK](DOTA)-OH; disulfide 3-11) | B (25<%≤50) | A (%≤25) |  |  | 1 to 10 |  |
| CC(=O)N[C@@H](CCC(C)C)C(=O)N[C@@H](Cc1ccc(O)cc1)C(=O)N[C@H]1CSSC[C@@H](C(=O)N[C@@H](Cc2c[nH]c3ccc(F)cc23)C(=O)N[C@@H](Cc2ccccc2)C(=O)N[C@H](C(N)=O)C(C)(C)O)NC(=O)[C@H](Cc2ccc(O)cc2)NC(=O)[C@H](C(C)C)NC(=O)[C@H](CC(=O)O)NC(=O)[C@H](CC2CCOCC2)NC(=O)[C@H](CCCCNC(=O)CN2CCN(CC(=O)O)CCN(CC(=O)O)CCN(CC(=O)O)CC2)NC(=O)CNC(=O)[C@H](C(C)(C)C)NC1=O [compound 338, Ac-hLeu-Y-C-Tbg-G-Lys(DOTA)-ThpA-D-V-Y-C-5FW-F-hydroxyVal-CONH2] (Ac-[hLeu]YC[Tle]GK(DOTA)[Ala(4-THP)]DVYC[Trp(5-F)]F[Val(3-OH)]-NH2; disulfide 3-11) | B (25<%≤50) | A (%≤25) |  |  | 1 to 10 |  |
| CC(=O)N[C@@H](CCC(C)C)C(=O)N[C@@H](Cc1ccc(O)cc1)C(=O)N[C@H]1CSSC[C@@H](C(=O)N[C@@H](Cc2c[nH]c3ccc(F)cc23)C(=O)N[C@@H](Cc2ccccc2)C(=O)N[C@H](C(=O)N[C@H](CCCCNC(=O)CN2CCN(CC(=O)O)CCN(CC(=O)O)CCN(CC(=O)O)CC2)C(=O)O)C(C)(C)O)NC(=O)[C@H](Cc2ccc(O)cc2)NC(=O)[C@H](C(C)C)NC(=O)[C@H](CC(=O)O)NC(=O)[C@H](CC2CCOCC2)NC(=O)[C@H](CC2CCN(CC(=O)O)CC2)NC(=O)CNC(=O)[C@H](C(C)(C)C)NC1=O [compound 339, Ac-hLeu-Y-C-Tbg-G-[Pip(CH2CO2H)Ala]-ThpA-D-V-Y-C-5FW-F-hydroxyVal-dLys(DOTA)-COOH] (Ac-[hLeu]YC[Tle]G[Ala(1-CH2CO2H-4-piperidyl)][Ala(4-THP)]DVYC[Trp(5-F)]F[Val(3-OH)][dK](DOTA)-OH; disulfide 3-11) | C (%>50) | B (25<%≤50) |  |  | < 1 |  |
| CC(=O)N[C@@H](CCC(C)C)C(=O)N[C@@H](Cc1ccc(O)cc1)C(=O)N[C@H]1CSSC[C@@H](C(=O)N[C@@H](Cc2c[nH]c3ccc(F)cc23)C(=O)N[C@@H](Cc2ccccc2)C(=O)N[C@H](C(=O)N[C@H](CCCCNC(=O)CN2CCN(CC(=O)O)CCN(CC(=O)O)CCN(CC(=O)O)CC2)C(=O)O)C(C)(C)O)NC(=O)[C@H](Cc2ccc(O)cc2)NC(=O)[C@H](C(C)C)NC(=O)[C@H](CC(=O)O)NC(=O)[C@H](CC2CCOCC2)NC(=O)[C@H](CC2CCNCC2)NC(=O)CNC(=O)[C@H](C(C)(C)C)NC1=O [compound 340, Ac-hLeu-Y-C-Tbg-G-PipAla-ThpA-D-V-Y-C-5FW-F-hydroxyVal-dLys(DOTA)-COOH] (Ac-[hLeu]YC[Tle]G[Ala(piperidin-4-yl)][Ala(4-THP)]DVYC[Trp(5-F)]F[Val(3-OH)][dK](DOTA)-OH; disulfide 3-11) | C (%>50) | A (%≤25) |  |  | < 1 |  |
